Laboratory results reported in the NIST ThermoML archive (doi:10.1021/je0302001).
Numbers after ± are expanded uncertainties.

Assay: mn = molality of the nth substance listed, in mol/kg
Conditions: for surface tension liquid-gas: Ring tensiometer; for viscosity / speed of sound / mass density: 101.3 kPa, Liquid; for viscosity: Capillary tube (Ostwald / Ubbelohde) method

## O=[N+]([O-])[O-].O=[N+]([O-])[O-].[Zn+2] [nitric acid, zinc salt] + O
293.15 K, m1 = 5.133
  surface tension liquid-gas: 85.7 ± 1.1 mN/m
293.15 K, m1 = 6.245
  surface tension liquid-gas: 86.95 ± 1.2 mN/m
293.15 K, m1 = 0.1329
  viscosity: 1.053 ± 0.012 mPa·s
  speed of sound: 1488.6 ± 4 m/s
293.15 K, m1 = 0.2466
  viscosity: 1.086 ± 0.012 mPa·s
  speed of sound: 1494.3 ± 4 m/s
293.15 K, m1 = 0.3388
  viscosity: 1.118 ± 0.013 mPa·s
  speed of sound: 1499 ± 4 m/s
293.15 K, m1 = 0.6111
  viscosity: 1.21 ± 0.014 mPa·s
  speed of sound: 1514.8 ± 4 m/s
293.15 K, m1 = 0.6405
  viscosity: 1.223 ± 0.014 mPa·s
  speed of sound: 1517 ± 4 m/s
293.15 K, m1 = 1.113
  viscosity: 1.428 ± 0.017 mPa·s
  speed of sound: 1546 ± 4.1 m/s
293.15 K, m1 = 1.258
  viscosity: 1.514 ± 0.018 mPa·s
  speed of sound: 1558.9 ± 4.1 m/s
293.15 K, m1 = 1.551
  viscosity: 1.664 ± 0.019 mPa·s
  speed of sound: 1578.3 ± 4.2 m/s
293.15 K, m1 = 1.906
  viscosity: 1.931 ± 0.023 mPa·s
  speed of sound: 1603.4 ± 4.2 m/s
293.15 K, m1 = 2.145
  viscosity: 2.133 ± 0.025 mPa·s
  speed of sound: 1618.3 ± 4.3 m/s
293.15 K, m1 = 2.29
  viscosity: 2.258 ± 0.027 mPa·s
  speed of sound: 1627.9 ± 4.3 m/s
293.15 K, m1 = 2.344
  viscosity: 2.273 ± 0.027 mPa·s
  speed of sound: 1631.6 ± 4.3 m/s
293.15 K, m1 = 2.91
  viscosity: 2.846 ± 0.034 mPa·s
  speed of sound: 1666.2 ± 4.4 m/s
293.15 K, m1 = 3.472
  viscosity: 3.61 ± 0.043 mPa·s
  speed of sound: 1697.2 ± 4.5 m/s
293.15 K, m1 = 4.075
  viscosity: 4.615 ± 0.056 mPa·s
  speed of sound: 1724.9 ± 4.5 m/s
293.15 K, m1 = 4.817
  viscosity: 6.303 ± 0.077 mPa·s
  speed of sound: 1752.8 ± 4.6 m/s
293.15 K, m1 = 5.224
  viscosity: 7.371 ± 0.09 mPa·s
  speed of sound: 1762.1 ± 4.6 m/s
293.15 K, m1 = 5.797
  viscosity: 9.658 ± 0.12 mPa·s
  speed of sound: 1777.6 ± 4.7 m/s
293.15 K, m1 = 6.34
  viscosity: 11.98 ± 0.15 mPa·s
  speed of sound: 1787.7 ± 4.7 m/s
293.15 K, m1 = 0.0875
  speed of sound: 1489.1 ± 4 m/s
293.15 K, m1 = 2.292
  speed of sound: 1626.3 ± 4.3 m/s
293.15 K, m1 = 6.89
  speed of sound: 1796.2 ± 4.7 m/s
294.3 K, m1 = 0.0875
  mass density: 1010.8 ± 0.6 kg/m3
295.95 K, m1 = 4.075
  mass density: 1492.7 ± 1.2 kg/m3
296.1 K, m1 = 6.89
  mass density: 1712.4 ± 1.5 kg/m3
296.15 K, m1 = 0.2466
  mass density: 1034.3 ± 0.7 kg/m3
296.25 K, m1 = 4.817
  mass density: 1558.4 ± 1.3 kg/m3
296.5 K, m1 = 1.258
  mass density: 1177 ± 0.8 kg/m3
297.05 K, m1 = 0.3388
  mass density: 1047.7 ± 0.7 kg/m3
297.05 K, m1 = 1.906
  mass density: 1259.3 ± 0.9 kg/m3
297.5 K, m1 = 2.29
  mass density: 1304.8 ± 1 kg/m3
297.8 K, m1 = 0.6111
  mass density: 1087.1 ± 0.8 kg/m3
297.85 K, m1 = 0.1329
  mass density: 1016.6 ± 0.7 kg/m3
297.9 K, m1 = 2.292
  mass density: 1304.8 ± 1 kg/m3
297.95 K, m1 = 4.075
  mass density: 1491.1 ± 1.2 kg/m3
298 K, m1 = 2.344
  mass density: 1310.8 ± 1 kg/m3
298.05 K, m1 = 3.472
  mass density: 1432.6 ± 1.1 kg/m3
298.15 K, m1 = 0.1329
  viscosity: 0.937 ± 0.011 mPa·s
  speed of sound: 1501.5 ± 4 m/s
298.15 K, m1 = 0.2466
  viscosity: 0.968 ± 0.011 mPa·s
  speed of sound: 1506.6 ± 4 m/s
298.15 K, m1 = 0.3388
  viscosity: 0.997 ± 0.012 mPa·s
  speed of sound: 1512.2 ± 4 m/s
298.15 K, m1 = 0.6111
  viscosity: 1.081 ± 0.012 mPa·s
  speed of sound: 1526.1 ± 4.1 m/s
298.15 K, m1 = 0.6405
  viscosity: 1.093 ± 0.013 mPa·s
  speed of sound: 1527.3 ± 4.1 m/s
298.15 K, m1 = 1.113
  viscosity: 1.278 ± 0.015 mPa·s
  speed of sound: 1554.3 ± 4.1 m/s
298.15 K, m1 = 1.258
  viscosity: 1.355 ± 0.016 mPa·s
  speed of sound: 1570.5 ± 4.2 m/s
298.15 K, m1 = 1.551
  viscosity: 1.489 ± 0.017 mPa·s
  speed of sound: 1584.3 ± 4.2 m/s
298.15 K, m1 = 1.906
  viscosity: 1.725 ± 0.02 mPa·s
  speed of sound: 1606.9 ± 4.3 m/s
298.15 K, m1 = 2.145
  viscosity: 1.903 ± 0.022 mPa·s
  speed of sound: 1620.9 ± 4.3 m/s
298.15 K, m1 = 2.29
  viscosity: 2.009 ± 0.024 mPa·s
  speed of sound: 1633 ± 4.3 m/s
298.15 K, m1 = 2.344
  viscosity: 2.026 ± 0.024 mPa·s
  speed of sound: 1633.6 ± 4.3 m/s
298.15 K, m1 = 2.91
  viscosity: 2.527 ± 0.03 mPa·s
  speed of sound: 1665.2 ± 4.4 m/s
298.15 K, m1 = 3.472
  viscosity: 3.188 ± 0.038 mPa·s
  speed of sound: 1694.4 ± 4.5 m/s
298.15 K, m1 = 4.075
  viscosity: 4.048 ± 0.049 mPa·s
  speed of sound: 1719.1 ± 4.5 m/s
298.15 K, m1 = 4.817
  viscosity: 5.473 ± 0.067 mPa·s
  mass density: 1556.8 ± 1.3 kg/m3
298.15 K, m1 = 5.224
  viscosity: 6.362 ± 0.078 mPa·s
298.15 K, m1 = 5.797
  viscosity: 8.228 ± 0.1 mPa·s
298.15 K, m1 = 6.34
  viscosity: 10.12 ± 0.12 mPa·s
298.15 K, m1 = 0.0875
  speed of sound: 1502.8 ± 4 m/s
298.15 K, m1 = 2.292
  speed of sound: 1628.3 ± 4.3 m/s
